Measurements from patent US10688084B2 (priority 2016, dated 2020).
Like-named read-outs stand apart in the source and are kept apart here.

Tests used:
[1] = cited from earlier work
acute inflammation = settings: literature value; cited from earlier work
[2] = literature value; cited from earlier work
Wistar rats [3] = settings: prototype of RU 2513089; cited from earlier work
[4] = system: subacute (formalin) edema; settings: prototype of RU 2513089; cited from earlier work
cyclooxygenase (COX) = experiment: COX activity assay (fluorometric kit, peroxidase activity) with skin fibroblast (HSF) cell lysate; type: biochemical; settings: fibroblast cell lysate, 1.25 to 20 μM in the well
Wistar rats [5] = type: in vivo; settings: for Analgesic effect, total/analgesic effect / Paw volume 0 hours / Paw volume 3 hours / Analgesic effect, %: 15 mg/kg
Method: In the study of analgesic properties of the formula I compound, were taken female and male Wistar rats aged 6-7 weeks with a body mass of 180-220 g. The number of animals in each group was 10.
[…] inflammation was modeled in rats by subplantar administration of 0.1 ml of a 1% solution of carrageenin (a sulfated polysaccharide from Irish sea moss) into the right hind paw. The substance was administered intragastrically using a gastric probe.
Inflammatory hyperalgesia (increased pain sensitivity of inflamed tissues in rats) was caused by carrageenin and was assessed by decrease of the pain sensitivity threshold—PST (by PST difference) to mechanical irritation (squeezing) of the paw tissue of the animal before the introduction of carrageenin and 3 hours after it. The measurement was performed on the inflamed paw. Used analgesimeter Ugo Basile S.R.L. (Italy) provides a gradual increased afterload on the rat's inflamed paw until a pain reaction appears (assessed by squeaking of animal or withdrawing the paw). The analyte was administered 2 h after carrageenin administration. […] An increase in the pain response threshold under the influence of the substances under study was expressed in an increase in the force of compression of the limb and characterized the intensity of the analgesic effect of the preparation. After the experiment, animals were euthanized by carbon dioxide inhalation method.
The introduction to rats was carried out in the amount of no more than 1 ml/100 g. The concentration of the resulting solution was 5 mg/ml.
(§1) To prepare a dose of 20 mg/kg, 40 ml of solution with a concentration of 5 mg/ml (50 mg/kg) were taken, transferred to a 100 ml measuring flask with accuracy class A, adjusted to 100 ml with 0.5% water solution of Tween-80 and the suspension was dispersed to a homogeneous consistency using a dispersant.
To prepare a dose of 10 mg/kg, 20 ml of solution with a concentration of 5 mg/ml (50 mg/kg) were taken, transferred to a 100 ml measuring flask with accuracy class A, adjusted to 100 ml with 0.5% aqueous solution of Tween-80 and the suspension was stirred to a homogeneous consistency with a magnetic stirrer MR Hei-Standard (Heidolph, Germany).
as §1, with “5” for “20”, “[…]” for “40”, “stirred” for “dispersed”, “with” for “using”, “magnetic stirrer.” for “dispersant.”

Wistar rats [6] = type: in vivo; settings: for Δ t after 2 hours, (M ± SD) / Δ t after 3 hours, (M ± SD) / Δ t after 4 hours, (M ± SD) / Δ t after 5 hours, (M ± SD) / Δ t after 6 hours, (M ± SD) / Δ t after 7 hours, (M ± SD): 15 mg/kg
Method: In the study of antipyretic properties of the formula I compound, were taken female and male Wistar rats aged 6-7 weeks, with a body mass of 180-220 g. The number of animals in each group was 10.
The febrile reaction was caused by subcutaneous administration of a 20% suspension of baking yeast. The rectal temperature was measured with an electrothermometer prior to the introduction of yeast and 18 hours after it (the difference of these measurements is the estimated hyperthermic reaction). The preparation was administered to animals at the peak of hyperthermia once (after 18 hours). The antipyretic effect was evaluated by hyperthermia decrease 2 hours after the injection of the test substance, and then the effect dynamics was recorded at hourly intervals for 7 hours.
The introduction to rats was carried out in the amount of no more than 1 ml/100 g. The concentration of the resulting solution was 7.5 mg/ml.
The difference in temperature after preparation administration and after 18 hours of induction with yeast was taken as the parameter of hyperthermia decrease.
Animals were observed individually after administration throughout the study. […] Wilcoxon nonparametric criterion was used for statistical comparison of experimental groups. Differences were determined at the 0.05 level of significance. The statistical analysis was carried out using the R-studio program.

2-[(2,6-dichlorophenyl) amino] benzene acetic acid [Diclofenac sodium]
UD50 ([1]; literature value): 48 mg/kg

CC(C)Cc1ccc(C(C)C(=O)O)cc1 (racemic) [Ibuprofen, (RS)-2-(4-isobutylphenyl) propionic acid]
ED50 acute inflammation (acute inflammation): 48 mg/kg | UD50 ([1]; literature value): 310 mg/kg | LD50 [2]: 750 mg/kg

COc1ccc2cc([C@H](C)C(=O)OCc3cnc(C)c(OC(=O)[C@@H](C)c4ccc5cc(OC)ccc5c4)c3COC(=O)[C@@H](C)c3ccc4cc(OC)ccc4c3)ccc2c1 [(2S,2'S)-(5-((S)-2-(6-methoxinaft-2-yl)propanoiloxy)-6-methylpyridine-3,4-diyl) bis (methylene) bis (2-(6-methoxynaphth-2-yl) propanoate)]
Efficacy on the model of acute (carrageenin) edema in vivo (Wistar rats [3]): not effective enough | Efficacy on the model of subacute (formalin) edema in vivo [4]: pronounced anti-inflammatory effect

CC(=O)Oc1ccccc1C(=O)O [Acetylsalicylic acid]
ED50 acute inflammation (acute inflammation): 98 mg/kg | UD50 ([1]; literature value): 240 mg/kg | UD50/ED50 (safety index) ([1]; literature value): 2.45 | LD50 [2]: 1600 mg/kg | LD50/ED50 (therapeutic index) [2]: 16

COc1ccc2c(c1)c(CC(=O)O)c(C)n2C(=O)c1ccc(Cl)cc1 [Indomethacin, 1-(4-chlorobenzoyl)-5-methoxy-2-methyl-1H-indol-3-acetic acid]
ED50 acute inflammation (acute inflammation): 10 mg/kg | UD50 ([1]; literature value): 10 mg/kg | UD50/ED50 (safety index) ([1]; literature value): 1 | LD50 [2]: 47 mg/kg | LD50/ED50 (therapeutic index) [2]: 4.7

COc1ccc2cc([C@H](C)C(=O)O)ccc2c1 [Naproxen, (S)-6-methoxy-α-methyl-2-naphthalenacetic acid, reference compound]
IC50 (cyclooxygenase (COX)): 9.56 µM | Analgesic effect, total/analgesic effect (Wistar rats [5]; females): 10/7 | Paw volume 0 hours (Wistar rats [5]; females): 5.0 ± 6.2 | Paw volume 3 hours (Wistar rats [5]; females): 5.0 ± 3.2 | Analgesic effect, % (Wistar rats [5]; females, control = 100.0): 195.3 ± 125.3% | Dose at which a pronounced anesthetic effect is exhibited (Wistar rats [5]; intragastric): 15 mg/kg | Analgesic effect, total/analgesic effect (Wistar rats [5]; males): 10/7 | Analgesic effect, % (Wistar rats [5]; rat, in vivo): 234.5 ± 160.2% | Paw volume 0 hours (Wistar rats [5]; rat, in vivo): 5.0 ± 2.9 | Paw volume 3 hours (Wistar rats [5]; rat, in vivo): 6.7 ± 4.6 | Level of temperature decrease (Wistar rats [6]; 15 mg/kg (or 65 μmol/kg)): 0.74-1.6 °C | Δ t after 2 hours, (M ± SD) (Wistar rats [6]; females): 1.64 | Δ t after 3 hours, (M ± SD) (Wistar rats [6]; females): 1.35 | Δ t after 4 hours, (M ± SD) (Wistar rats [6]; females): 1.58 | Δ t after 5 hours, (M ± SD) (Wistar rats [6]; females): 1.21 | Δ t after 6 hours, (M ± SD) (Wistar rats [6]; females): 1.09 | Δ t after 7 hours, (M ± SD) (Wistar rats [6]; females): 0.74 | Δ t after 2 hours, (M ± SD) (Wistar rats [6]; males): 1.39 | Δ t after 3 hours, (M ± SD) (Wistar rats [6]; males): 1.49 | Δ t after 4 hours, (M ± SD) (Wistar rats [6]; males): 1.6 | Δ t after 5 hours, (M ± SD) (Wistar rats [6]; males): 1.51 | Δ t after 6 hours, (M ± SD) (Wistar rats [6]; males): 1.53 | Δ t after 7 hours, (M ± SD) (Wistar rats [6]; males): 1.44 | ED50 acute inflammation (acute inflammation): 15 mg/kg | UD50 ([1]; literature value): 49 mg/kg

CCCCC1C(=O)N(c2ccccc2)N(c2ccccc2)C1=O [Phenylbutazone]
UD50 ([1]; literature value): 120 mg/kg

CN1C(C(=O)Nc2ccccn2)=C(O)c2ccccc2S1(=O)=O [Pyroxicam]
ED50 acute inflammation (acute inflammation): 20 mg/kg | UD50 ([1]; in vivo): 36 mg/kg | UD50/ED50 (safety index) ([1]; literature value): 1.8 | LD50 [2]: 290 mg/kg | LD50/ED50 (therapeutic index) [2]: 15
